# How the values were obtained:
# [1] = system: HSV type 1 (HSV-1) strain VR-3; assay: anti-HSV activity: inhibition of cytopathic effect (CPE), HSV-1; assay type: cell-based; settings: Human alphaherpesvirus 1; HSV-1 strain VR-3, 100-320 TCID50; human embryonic lung cells; 37° C., 2 to 3 days; read-out: MIC HSV-1 (minimum concentration at which the CPE is inhibited at least by 50%)
# Description: (§1) A. Human embryonic lung cells are subcultivated in Eagle's MEM supplemented with 10% semi-fetal calf serum.
# (§2) B. The cells thus subcultivated are used as a parent culture. A cell suspension obtained from the parent culture by dividing it at 1:2 split is seeded into 96 microwells in an amount of 150 μl/well and incubated in a CO2 -incubator at 37° C. for 4 to 5 days.
# (§3) C. The culture field is discarded, and 100- to 320-50% tissue culture infective doses (100-320 TCID50) of HSV type 1 (HSV-1) strain VR-3 or HSV type 2 (HSV-2) strain MS is inoculated. After incubation at 37° C. for 1 hour, the virus fluid is discarded, 150 μl of Eagle's MEM supplemented with 2.5% semi-fetal calf serum and containing an appropriate amount of each test compound is added, and cultivation is carried out at 37° C. Each of the test compounds is usually diluted in the range of from 100 to 1 μg/ml by serial 0.5 log10 decrements.
# (§4) D. After cultivation for 2 to 3 days, the degree of the cytopathic effect (CPE) caused by the viral infection in each of the wells is observed microscopically. At the time when the control cultures, in which the test compound is absent, have shown complete CPE by the viral infection, the degree of CPE in each well is rated from 0 to 4.
# (§5) E. The minimum concentration at which the CPE is inhibited at least by 50% (indicated by the CPE score not exceeding 2) is defined as the minimum inhibitory concentration (MIC) of the test compound.
# [2] = system: HSV type 2 (HSV-2) strain MS; assay: anti-HSV activity: inhibition of cytopathic effect (CPE), HSV-2; assay type: cell-based; settings: Human alphaherpesvirus 2, 100-320 TCID50, human embryonic lung cells, 37° C., 2 to 3 days, read-out: MIC HSV-2 (minimum concentration at which the CPE is inhibited at least by 50%)
# Description: as §1, §2, §3, §4, §5
# CMV strain AD 169 = assay: anti-CMV activity: inhibition of plaque formation; assay type: cell-based, cytomegalovirus (CMV); settings: Human betaherpesvirus 5; CMV strain AD 169, about 50 plaque forming units; human embryonic lung cells; 37° C., 4 to 6 days; read-out: MIC CMV (minimum concentration at which the plaque formation is inhibited at least by 50%)
# Description: as §1
# B. The cells thus subcultivated are used as a parent culture. A cell suspension obtained from the parent culture by dividing it at 1:2 split is seeded into 24 semi-microwells in an amount of 150 μl/well and incubated in a CO2 -incubator at 37° C. for 4 to 5 days.
# C. The culture fluid is discarded, and about 50 plaque forming units of CMV strain AD 169 is inoculated. After incubation at 37° C. for 1 hour, 400 μl of Eagle's MEM supplemented with 2.5% semi-fetal calf serum and containing an appropriate amount of each test compound is added, and cultivation is carried out at 37° C. Each of the test compounds is usually diluted in the range of from 100 to 1 μg/ml by serial 0.5 log10 decrements.
# D. After cultivation for 4 to 6 days, infected cells are stained with a 0.5% Crystal Violet solution, and the number of plaques formed is counted under the microscope.
# E. The minimum concentration at which the plaque formation is inhibited at least by 50%, based on the number of plaques formed in the control cultures in which the test compound is absent, is defined as the minimum inhibitory concentration (MIC) of the test compound.
SMILES,MIC [1] [µg/mL],MIC [2] [µg/mL],MIC (CMV strain AD 169) [µg/mL]
"C=C1[C@H](n2cc(Br)c(=O)[nH]c2=O)O[C@H](CO)[C@H]1O [OH Br H H, 2'-methylidene-2'-deoxy-5-bromouridine]",3.2,3.2,–
"C=C1[C@H](n2cc(Cl)c(=O)[nH]c2=O)O[C@H](CO)[C@H]1O [OH Cl H H, 2'-methylidene-2'-deoxy-5-chlorouridine]",10,10,–
"C=C1[C@H](n2cc(C)c(=O)[nH]c2=O)O[C@H](CO)[C@H]1O [OH CH3 H H, 2'-methylidenethymidine]",1,1,5.6
"C=C1[C@H](n2ccc(N)nc2=O)O[C@H](CO)[C@H]1O [NH2 H H H, 2'-methylidene-2'-deoxycytidine]",1,1,0.1
"CC=C1[C@H](n2cc(C)c(=O)[nH]c2=O)O[C@H](CO)[C@H]1O [OH CH3 CH3 H, 2'-ethylidenethymidine]",10,32,–
"C=C1[C@H](n2cc(I)c(=O)[nH]c2=O)O[C@H](CO)[C@H]1O [OH I H H, 2'-methylidene-2'-deoxy-5-iodouridine]",1,1,–
